The source of these data is article PMC4240912, “Multifaceted interplay between lipophilicity, protein interaction and luminescence parameters of non-intercalative ruthenium(II) polypyridyl complexes controlling cellular imaging and cytotoxic properties” (Journal of Biological Inorganic Chemistry, 2014).

In data set [1] the test system is FVB mouse lung microvascular endothelial cells (MLuMEC FVB). As to the kind of experiment: Alamar Blue cell viability, MLuMEC. In kind it is cell-based. The following applies: 24 h. The procedure: (§1) FVB mouse lung microvascular endothelial cells (MLuMEC FVB) and murine endothelial cells isolated from aorta-gonad-mesonephros (AGM) region of 10.5 dpc embryos (MAgEC 10.5) were cultured in OptiMEM with Glutamax-I (Gibco Invitrogen) supplemented with 2% fetal bovine serum (FBS), 0.4% gentamycin and 0.2% fungizone. […]
(§2) 10% FBS, 1% peniciline and streptomycin and 0.2% fungizone. Cells were routinely cultured at 37 °C in a humidified incubator in 5% CO2 atmosphere.
(§3) Cell viability was measured using Alamar Blue assay. Cells were seeded on 96 wells plate with density of 1 × 10^4 cells per cm2 and cultured for 1 day. Then cells were incubated with various concentrations of compounds in medium with or without 2% FBS for 24 and 48 h under normoxic and hypoxic conditions in the darkness. Next cells were washed with PBS and incubated in Alamar Blue solution for 3 h. The cell viability was quantified at 605 nm using 560 nm excitation light (VICTOR 3V multilabel plate reader PerkinElmer or Tecan Infinite200 Reader). Experiments were performed in triplicates and each experiment was performed at least three times to get the mean values ± standard derivation. The viability was calculated with regard to the untreated cells control. The IC50 values were determined using Hill equation (Origin 9.0). […]
Background: Resazurin is reduced to fluorescent resorufin, in cell work by metabolically active cells.

Data set [2] has as its system 4T1 breast cancer cell line. The data set is described as follows: Alamar Blue cell viability, 4T1. The following applies: 4T1, 24 h incubation. The class given is cell-based. On the procedure: 4T1 breast cancer cell line was cultured in RPMI-1640 (Gibco Invitrogen) with 10 % fetal bovine serum (FBS, the bovine serum albumin is a major component), 1 % penicillin and streptomycin and 0.2 % fungizone. Cells were routinely cultured at 37 °C in a humidified incubator in 5 % CO2 atmosphere. Cell viability was measured using Alamar Blue assay. Cells were seeded on 96-well plate with density of 10^4 cells per cm^2 and cultured for 24 h in medium with or without 2 % serum. Then cells were incubated with various concentrations of ruthenium compounds for 24 h in the dark. All used ruthenium complexes were freshly diluted in DMSO and then added to the appropriate medium to obtain the applied concentrations. The final DMSO concentration was kept constant at 0.05 % (v/v). Next cells were washed with PBS and incubated in AlamarBlue solution (21 times diluted in PBS) for 3 h. Alamar Blue test is based on the reduction of blue and non-fluorescent subtract (resazurin) to a pink and highly fluorescent product (resorufin) by the alive cells. Extract mechanism of the reduction is still unknown, but it is postulated that reduction occurs by mitochondrial or cytoplasmic enzymes, such as NADH dehydrogenase or diaphorase. It is still not known whether this process occurs intracellularly, at the plasma membrane surface or just in the medium as a chemical reaction. The cell viability was quantified at 605 nm using 560 nm excitation light (VICTOR 3V multilabel plate readers, PerkinElmer). Experiments were performed in triplicates and each experiment was performed at least three times to get the mean values ± standard deviation. The viability was calculated with regard to the untreated cells control. The IC50 values were determined using Hill equation (Origin 9.0): y=y0+y100-y0c^H/IC50^H+c^H

Data set [3] relates to murine endothelial cells isolated from aorta-gonad-mesonephros (AGM) region of 10.5 dpc embryos (MAgEC 10.5). The data set is described as follows: Alamar Blue cell viability, MAgEC 10.5. The settings on record: MAgEC 10.5, 24 h. The class given is cell-based. On the procedure: as §1, §2, §3
In data set [4] the test system is Human lung adenocarcinoma epithelial cell line (A549). As to the kind of experiment: Alamar Blue cell viability, A549. The settings on record: A549, 24 h. In kind it is cell-based. The procedure: as §2, §3
For data set [5] the following is noted: aqueous solution, cited from earlier work.

SMILES strings stand for the structures. Where two headings read alike, the source gives them in different places.

One may read the IC50 as the concentration that inhibits the measured activity by half. Low readings indicate greater potency, high ones weaker potency. For the compound `N.N.[Cl][Pt][Cl]` [Cisplatin, reference compound], the IC50 stood at 14.5 ± 1.4 µM in data set [1] (with serum (2%)); 24.6 ± 2.89 µM in data set [1] (without serum); 59.8 ± 8.32 µM in data set [2] (medium with serum (2 %)); 73 ± 14.9 µM in data set [2] (medium without serum); 8.75 ± 0.2 µM in data set [3] (with serum (2%)); 9.38 ± 0.67 µM in data set [3] (without serum). In addition, the 50% inhibitory concentration (IC50) in data set [4] (with serum (2%)) was 71.3 ± 22.9 µM; in data set [4] (without serum) it was 126 ± 30.5 µM.

As for `[Ru+2].c1ccc(-c2ccccn2)nc1.c1ccc(-c2ccccn2)nc1.c1ccc(-c2ccccn2)nc1` [[Ru(bpy)3]^2+, reference compound], the “Φ, quantum yield of luminescence (standard)” value in data set [5] (air-equilibrium conditions, ref [14]) is listed as 0.028; in data set [5] (deoxygenated conditions, ref [20]) it was 0.042.
